The source of these data is US20240116985A1, “STAPLED PEPTIDES AND METHODS THEREOF” (priority 2020, published 2024).

One may read the chromatographic logD as a lipophilicity value derived from retention on a column.

Like-named read-outs stand apart in the source and are kept apart here.

One data set is described as follows: CHI Log D procedure. It is filed as physicochemical. Conditions: for chromatographic logD: pH 7.4, CHI Log D; for CHI Log D: pH 7.4.
Data set [1] has as its target T1, full-length beta-Catenin (Uniprot ID P35222) (Homo sapiens, UniProt P35222).
T1 construct: 10 nM full-length beta-Catenin (Uniprot ID P35222)
T1 sequence (P35222 1-781): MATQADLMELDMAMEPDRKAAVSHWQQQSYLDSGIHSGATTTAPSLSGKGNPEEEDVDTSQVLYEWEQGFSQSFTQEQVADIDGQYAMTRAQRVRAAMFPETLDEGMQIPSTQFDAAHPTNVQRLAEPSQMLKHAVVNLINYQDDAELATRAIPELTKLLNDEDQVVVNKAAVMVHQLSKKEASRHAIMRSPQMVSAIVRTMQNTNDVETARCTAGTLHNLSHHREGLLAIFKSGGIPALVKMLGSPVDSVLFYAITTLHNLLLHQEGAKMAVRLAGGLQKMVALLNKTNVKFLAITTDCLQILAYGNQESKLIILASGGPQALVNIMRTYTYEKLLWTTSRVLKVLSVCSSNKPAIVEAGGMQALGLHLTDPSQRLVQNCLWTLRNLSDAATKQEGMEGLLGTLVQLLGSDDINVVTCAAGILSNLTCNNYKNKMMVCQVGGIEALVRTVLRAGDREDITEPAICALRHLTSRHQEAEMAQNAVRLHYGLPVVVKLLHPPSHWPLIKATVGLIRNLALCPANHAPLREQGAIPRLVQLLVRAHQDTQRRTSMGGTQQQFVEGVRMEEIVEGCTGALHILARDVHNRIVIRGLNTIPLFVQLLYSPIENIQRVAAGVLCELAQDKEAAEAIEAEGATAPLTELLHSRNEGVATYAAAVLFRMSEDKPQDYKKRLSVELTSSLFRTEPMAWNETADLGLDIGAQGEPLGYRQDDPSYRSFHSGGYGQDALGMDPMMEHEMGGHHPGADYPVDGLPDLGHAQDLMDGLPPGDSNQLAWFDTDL
The data set can be described thus: Fluorescence polarization IC50 (beta-catenin / 5FAM-TCF4 10-53 competition). Type of data set: binding. For orientation: Fluorescence polarisation rises when a labelled molecule tumbles more slowly, as on binding a larger partner.

Where [2] appears, read: fluorescence polarization, read-out: beta-Catenin FP IC50.

The compound `CC(=O)N1CCC[C@]12CC=CCCCC1(CCCC=CCCCCCC[C@@](C)(C(=O)N[C@@H](Cc3cccc(F)c3)C(=O)N[C@@H](Cc3csc4ccccc34)C(=O)N[C@@H](CCC(N)=O)C(N)=O)NC(=O)[C@H](C(C)C)NC(=O)[C@H](Cc3ccccc3)NC(=O)[C@H](C)NC(=O)[C@H](C)NC(=O)[C@H](Cc3cn(C)cn3)NC(=O)[C@H](CC(=O)O)NC1=O)NC(=O)[C@H](C)NC(=O)[C@H](CC(=O)O)NC2=O` (stereo partly drawn) [I-403, Ac-PL3-Asp-Ala-B5-Asp-1meH-Ala-Ala-Phe-Val-S8-3FF-BztA-Gln-NH2] returned a chromatographic logD in “CHI Log D procedure” of 2.87. For the same compound, in data set [1] (setting [2]), the IC50 was found to be 2130 nM.
The like results for `CC(=O)N1CCC[C@]12CC=CCCCC1(CCCC=CCCCCCC[C@@](C)(C(=O)N[C@@H](Cc3cccc(F)c3)C(=O)N[C@@H](Cc3csc4ccccc34)C(=O)N[C@@H](CCC(N)=O)C(N)=O)NC(=O)[C@H](CCC(N)=O)NC(=O)[C@H](Cc3cccc(C)c3)NC(=O)[C@H](C)NC(=O)[C@H](C)NC(=O)[C@H](CN(CC(=O)O)CC(F)(F)F)NC(=O)[C@H](CC(=O)O)NC1=O)NC(=O)[C@H](C)NC(=O)[C@H](CC(=O)O)NC2=O` (stereo partly drawn) [I-404, Ac-PL3-Asp-Ala-B5-Asp-TfeGA-Ala-Ala-3MeF-Gln-S8-3FF-BztA-Gln-NH2] were, in that order, 2.4 and 1850 nM.
The like results for `CC(=O)N1CCC[C@]12CC=CCCCC1(CCCC=CCOC(=O)N(C)CCC[C@@](C)(C(=O)N[C@@H](Cc3cccc(F)c3)C(=O)N[C@@H](Cc3csc4ccccc34)C(=O)N[C@@H](CCC(N)=O)C(N)=O)NC(=O)[C@H](CCC(N)=O)NC(=O)[C@H](Cc3cccc(C)c3)NC(=O)[C@H](C)NC(=O)[C@H](C)NC(=O)[C@H](CN(CC(=O)O)CC(F)(F)F)NC(=O)[C@H](CC(=O)O)NC1=O)NC(=O)[C@H](C)NC(=O)[C@H](CC(=O)O)NC2=O` (stereo partly drawn) [I-405, Ac-PL3-Asp-Ala-B5-Asp-TfeGA-Ala-Ala-3MeF-Gln-SeN-3FF-BztA-Gln-NH2] were, in that order, 1.72 and 3820 nM.
For `CC[C@H](C)[C@@H]1NC(=O)[C@H](CC(=O)O)NC(=O)[C@]2(CC=CCCCC3(CCCC=CCCCCCC[C@@](C)(C(=O)N[C@@H](Cc4cccc(F)c4)C(=O)N[C@@H](Cc4csc5ccccc45)C(=O)N[C@@H](CCC(N)=O)C(N)=O)NC(=O)[C@H](CCC(N)=O)NC(=O)[C@H](Cc4cccs4)NC(=O)[C@H](C)NC(=O)[C@H](C)NC(=O)[C@H](CCC(=O)O)NC(=O)[C@H](CC(=O)O)NC3=O)NC1=O)CCCN2C(C)=O` (stereo partly drawn) [I-412, Ac-PL3-Asp-Ile-B5-Asp-Glu-Ala-Ala-2Thi-Gln-S8-3FF-BztA-Gln-NH2], in that order: 2.65 and 92 nM.
For the compound `CC(=O)N1CCC[C@]12CC=CCCCC1(CCCC=CCCCCCC[C@@](C)(C(=O)N[C@@H](Cc3ccccc3)C(=O)N[C@@H](Cc3csc4ccccc34)C(=O)N[C@@H](Cc3c[nH]cn3)C(N)=O)NC(=O)[C@H](CCC(N)=O)NC(=O)[C@H](Cc3ccccc3)NC(=O)[C@H](C)NC(=O)[C@H](C)NC(=O)[C@H](CCC(=O)O)NC(=O)[C@H](CC(=O)O)NC1=O)NC(=O)[C@H](C)NC(=O)[C@H](CC(=O)O)NC2=O` (stereo partly drawn) [I-419, Ac-PL3-Asp-Ala-B5-Asp-Glu-Ala-Ala-Phe-Gln-S8-Phe-BztA-His-NH2], the “CHI Log D” value in “CHI Log D procedure” stood at 2.114. The IC50 in data set [1] (setting [2]) and in data set [1] (read-out: FP EC50) was 23 nM each time.
For `CC(=O)N1CCC[C@]12CC=CCCCC1(CCCC=CCCCCCC[C@@](C)(C(=O)N[C@@H](Cc3cccc(F)c3)C(=O)N[C@@H](Cc3csc4ccccc34)C(=O)N[C@@H](Cc3c[nH]cn3)C(N)=O)NC(=O)[C@H](CCC(N)=O)NC(=O)[C@H](Cc3ccsc3)NC(=O)[C@H](C)NC(=O)[C@H](C)NC(=O)[C@H](CCC(=O)O)NC(=O)[C@H](CC(=O)O)NC1=O)NC(=O)[C@H](C)NC(=O)[C@H](CC(=O)O)NC2=O` (stereo partly drawn) [I-430, Ac-PL3-Asp-Ala-B5-Asp-Glu-Ala-Ala-3Thi-Gln-S8-3FF-BztA-His-NH2], the chromatographic logD in the data set “CHI Log D procedure” came to 2.13. In addition, the IC50 in data set [1] (setting [2]) turned out to be 154 nM.
For `CC(=O)N1CCC[C@]12CC=CCCCC1(CCCC=CCCCCCC[C@@](C)(C(=O)N[C@@H](Cc3ccccc3)C(=O)N[C@@H](Cc3csc4ccccc34)C(=O)N[C@@H](CCC(N)=O)C(N)=O)NC(=O)[C@H](CC(N)=O)NC(=O)[C@H](Cc3ccccc3F)NC(=O)[C@H](C)NC(=O)[C@H](C)NC(=O)[C@H](CCC(=O)O)NC(=O)[C@H](CC(=O)O)NC1=O)NC(=O)[C@H](C)NC(=O)[C@H](CC(=O)O)NC2=O` (stereo partly drawn) [I-453, Ac-PL3-Asp-Ala-B5-Asp-Glu-Ala-Ala-2FF-Asn-S8-Phe-BztA-Gln-NH2], in that order: 2.01 and 1550 nM.
For `CC(=O)N1CCC[C@]12CC=CCCCC1(CCCC=CCCCCCC[C@@](C)(C(=O)N[C@@H](Cc3ccccc3)C(=O)N[C@@H](Cc3csc4ccccc34)C(=O)N[C@@H](CCC(N)=O)C(N)=O)NC(=O)[C@H](CC(N)=O)NC(=O)[C@H](Cc3cccc(F)c3)NC(=O)[C@H](C)NC(=O)[C@H](C)NC(=O)[C@H](CCC(=O)O)NC(=O)[C@H](CC(=O)O)NC1=O)NC(=O)[C@H](C)NC(=O)[C@H](CC(=O)O)NC2=O` (stereo partly drawn) [I-454, Ac-PL3-Asp-Ala-B5-Asp-Glu-Ala-Ala-3FF-Asn-S8-Phe-BztA-Gln-NH2], in that order: 2.05 and 125 nM.
For `CC(=O)N1CCC[C@]12CC=CCCCC1(CCCC=CCCCCCC[C@@](C)(C(=O)N[C@@H](Cc3ccccc3)C(=O)N[C@@H](Cc3csc4ccccc34)C(=O)N[C@@H](CCC(N)=O)C(N)=O)NC(=O)[C@H](CC(N)=O)NC(=O)[C@H](Cc3ccc(F)cc3)NC(=O)[C@H](C)NC(=O)[C@H](C)NC(=O)[C@H](CCC(=O)O)NC(=O)[C@H](CC(=O)O)NC1=O)NC(=O)[C@H](C)NC(=O)[C@H](CC(=O)O)NC2=O` (stereo partly drawn) [I-455, Ac-PL3-Asp-Ala-B5-Asp-Glu-Ala-Ala-4FF-Asn-S8-Phe-BztA-Gln-NH2], the chromatographic logD in “CHI Log D procedure” worked out at 2.04. Moreover, the IC50 in data set [1] (setting [2]) is 83.5 nM.
Turning to `CC(=O)N1CCC[C@]12CC=CCCCC1(CCCC=CCCCCCC[C@@](C)(C(=O)N[C@@H](Cc3ccccc3)C(=O)N[C@@H](Cc3csc4ccccc34)C(=O)N[C@@H](CCC(N)=O)C(N)=O)NC(=O)[C@H](CC(N)=O)NC(=O)[C@H](Cc3ccccc3C)NC(=O)[C@H](C)NC(=O)[C@H](C)NC(=O)[C@H](CCC(=O)O)NC(=O)[C@H](CC(=O)O)NC1=O)NC(=O)[C@H](C)NC(=O)[C@H](CC(=O)O)NC2=O` (stereo partly drawn) [I-456, Ac-PL3-Asp-Ala-B5-Asp-Glu-Ala-Ala-2MeF-Asn-S8-Phe-BztA-Gln-NH2], the “CHI Log D” value in “CHI Log D procedure” is reported as 2.0045. The IC50 in data set [1] (setting [2]) and in data set [1] (read-out: FP EC50) was 2170 nM in each case.
Take `CC(=O)N1CCC[C@]12CC=CCCCC1(CCCC=CCCCCCC[C@@](C)(C(=O)N[C@@H](Cc3ccccc3)C(=O)N[C@@H](Cc3csc4ccccc34)C(=O)N[C@@H](CCC(N)=O)C(N)=O)NC(=O)[C@H](CC(N)=O)NC(=O)[C@H](Cc3ccccc3C)NC(=O)[C@H](C)NC(=O)[C@H](C)NC(=O)[C@H](CCC(=O)O)NC(=O)[C@H](CC(=O)O)NC1=O)NC(=O)[C@H](C)NC(=O)[C@H](CC(=O)O)NC2=O` (stereo partly drawn) [I-457, Ac-PL3-Asp-Ala-B5-Asp-Glu-Ala-Ala-2MeF-Asn-S8-Phe-BztA-Gln-NH2]: the “CHI Log D” value in “CHI Log D procedure” is 2.0242. The IC50 in data set [1] (setting [2]) and in data set [1] (read-out: FP EC50) was 1440 nM in each case.
In the data set “CHI Log D procedure”, `CC(=O)N1CCC[C@]12CC=CCCCC1(CCCC=CCCCCCC[C@@](C)(C(=O)N[C@@H](Cc3ccccc3)C(=O)N[C@@H](Cc3csc4ccccc34)C(=O)N[C@@H](CCC(N)=O)C(N)=O)NC(=O)[C@H](CC(N)=O)NC(=O)[C@H](Cc3cccc(C)c3)NC(=O)[C@H](C)NC(=O)[C@H](C)NC(=O)[C@H](CCC(=O)O)NC(=O)[C@H](CC(=O)O)NC1=O)NC(=O)[C@H](C)NC(=O)[C@H](CC(=O)O)NC2=O` (stereo partly drawn) [I-458, Ac-PL3-Asp-Ala-B5-Asp-Glu-Ala-Ala-3MeF-Asn-S8-Phe-BztA-Gln-NH2] registered a chromatographic logD of 2.07. Moreover, the IC50 in data set [1] (setting [2]) turned out to be 102 nM.
The like results for `CC(=O)N1CCC[C@]12CC=CCCCC1(CCCC=CCCCCCC[C@@](C)(C(=O)N[C@@H](Cc3ccccc3)C(=O)N[C@@H](Cc3csc4ccccc34)C(=O)N[C@@H](CCC(N)=O)C(N)=O)NC(=O)[C@H](CC(N)=O)NC(=O)[C@H](Cc3ccc(C)cc3)NC(=O)[C@H](C)NC(=O)[C@H](C)NC(=O)[C@H](CCC(=O)O)NC(=O)[C@H](CC(=O)O)NC1=O)NC(=O)[C@H](C)NC(=O)[C@H](CC(=O)O)NC2=O` (stereo partly drawn) [I-459, Ac-PL3-Asp-Ala-B5-Asp-Glu-Ala-Ala-4MeF-Asn-S8-Phe-BztA-Gln-NH2] were, in that order, 2.06 and 183 nM.
In the case of `CC(=O)N1CCC[C@]12CC=CCCCC1(CCCC=CCCCCCC[C@@](C)(C(=O)N[C@@H](Cc3ccccc3)C(=O)N[C@@H](Cc3csc4ccccc34)C(=O)N[C@@H](CCC(N)=O)C(N)=O)NC(=O)[C@H](CC(N)=O)NC(=O)[C@H](Cc3ccco3)NC(=O)[C@H](C)NC(=O)[C@H](C)NC(=O)[C@H](CCC(=O)O)NC(=O)[C@H](CC(=O)O)NC1=O)NC(=O)[C@H](C)NC(=O)[C@H](CC(=O)O)NC2=O` (stereo partly drawn) [I-460, Ac-PL3-Asp-Ala-B5-Asp-Glu-Ala-Ala-2FurA-Asn-S8-Phe-BztA-Gln-NH2], in “CHI Log D procedure”, the chromatographic logD is 1.99. The IC50 in data set [1] (setting [2]) was 195 nM.
